The nature of assay [1]: Plasma progesterone at the 22nd day of the period. The format is in vivo, women. An excerpt: (§1) The women were divided into 3 groups, each group received the treatment according to the following scheme: • Group A: 20 women treated with 1.5 g of myo-inositol + 2 g of glucomannan, twicea day for 3 months, administered half an hour before meals; • Group B: 10 women treated with 1.5 g myo-inositol, twice a day for 3 months, administered half an hour before meals; • Group C: 10 women treated with a dose of 2 g of glucomannan, twice a day for 3 months, adminisered with main meals.
(§2) In addition to the assessment of blood glucose and insulin levels during OGTT, the menstrual cycle trend has been evaluated in all the women: the 3rd month of treatment at the 22nd day of the menstrual cycle a progesterone dosage was performed and, after 3 months of treatment, an evaluation of acne, hirsutism and body mass index was performed.

Assay [2] in a line: Menstrual cycle trend (frequency of the period). It is filed as in vivo. The settings on record: before the treatment, same group of women with PCOS.
Text: as §1, §2

Assay [3] in a line: Body mass index evaluation. The format is in vivo, women.
Text: as §1, §2

Assay [4] is described as follows: OGTT (oral glucose tolerance test): insulin levels. It is filed as in vivo. Further details: unit not given beside the values. The settings on record: OGTT 75 g, women with PCOS, treatment twice a day for 3 months. The protocol:
(§3) In order to evaluate the effectiveness of this new combination of inositol and glucomannan on blood glucose levels and insulin at baseline and after glucose load curve, it was evaluated the effect in 20 women affected by insulin resistance PCOS and compared with what determined in 2 groups of 10 women each, treated with myo-inositol and glucomannan individually administered.
as §1
(§4) In order to determine blood glucose and insulin levels in all samples, OGTT (oral glucose tolerance test) was performed in all women in the early follicular phase of the spontaneous period, or after a progestin-induced, period before starting the treatment and after three months of treatment ([…]) .

Assay [5] in a line: OGTT (oral glucose tolerance test): blood glucose levels. It is filed as in vivo. Conditions: OGTT 75 g, women with PCOS, treatment twice a day for 3 months. The protocol: as §3, §1, §4
The mark [6] stands for this setting: before treatment, same group of women with PCOS.

On to `O[C@H]1[C@H](O)[C@@H](O)[C@H](O)[C@@H](O)[C@H]1O` [myo-inositol], for which the plasma progesterone worked out at 4.2 ± 0.6 ng/mL in assay [1] (22nd day of the period during the 3rd month of treatment) and 2.2 ± 0.2 ng/mL in assay [1] (setting [6]). For the same compound, the “frequency of the period” value in assay [2] was in the range of 38 to 42 days. The body mass index in assay [3] (at the 3rd month of treatment) is 25 ± 1.3; in assay [3] (setting [6]) it was 27 ± 0.6. Further, the insulin levels in assay [4] (time 0) is given as 7.6+1; in assay [4] (time 60') it was 57.5±7.13; in assay [4] (time 90'), 48.4±4.81; in assay [4] (time 120'), 40.7±5.57; in assay [4] (time 180'), 34±4.89. Besides, the blood glucose levels in assay [5] (time 0) is on record as 90±4.71; in assay [5] (time 30'), 130.8±6.56; in assay [5] (time 90') it was 107.2±10.25; in assay [5] (time 120'), 98±6.92; in assay [5] (time 180'), 91.1±6.15.

These data come from EP2875809B1, “Product based on an association of glucomannan and inositol” (Dicofarm Spa, priority 2013, dated 2015).
